# Source: paper PMC3215231, “Arcanolysin is a cholesterol-dependent cytolysin of the human pathogen Arcanobacterium haemolyticum” (BMC Microbiology, 2011)
# Target: PFO (perfringolysin O), His-tagged PFO (Clostridium perfringens, UniProt P0C2E9)
# Assay type: biochemical
# Sequence of PFO (perfringolysin O), His-tagged PFO (P0C2E9 29-500 limits assumed): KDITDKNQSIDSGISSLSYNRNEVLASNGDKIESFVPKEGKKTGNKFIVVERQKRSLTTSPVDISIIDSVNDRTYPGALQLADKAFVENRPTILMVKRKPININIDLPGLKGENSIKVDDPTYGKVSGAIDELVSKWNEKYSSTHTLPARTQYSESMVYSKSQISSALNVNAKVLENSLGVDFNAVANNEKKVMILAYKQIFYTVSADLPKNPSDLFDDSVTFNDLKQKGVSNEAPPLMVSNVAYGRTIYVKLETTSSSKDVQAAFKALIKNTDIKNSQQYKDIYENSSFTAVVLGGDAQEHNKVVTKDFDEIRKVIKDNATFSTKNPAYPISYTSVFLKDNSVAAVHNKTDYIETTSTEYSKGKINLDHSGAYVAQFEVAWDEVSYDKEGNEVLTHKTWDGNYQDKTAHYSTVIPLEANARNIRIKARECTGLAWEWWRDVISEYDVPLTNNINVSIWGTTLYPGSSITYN
compound,measurement,value
CC(C)CCC[C@@H](C)[C@H]1CC[C@H]2[C@@H]3CC=C4C[C@@H](O)CC[C@]4(C)[C@H]3CC[C@]12C [cholesterol],% activity retained at 0.5 μM cholesterol,7.6%
